Test results published in patent US20020019543A1, “Thiol derivative, metallo-beta-lactamase inhibitors” (priority 2000, published 2002).

Experiments:
[1] = tested on: E. coli BL21(DE3)/pET30a-IMP-1; type: cell-based; conditions: thioester conc giving 4-fold increase in sensitivity to the Merck carbapenem (0.25x MIC), no visible growth after 20 hours at 35° C.
Excerpt: (§1) A laboratory strain of E.coli engineered to express IMP-1 was used to evaluate the ability of thiol derivatives to reverse metallo-β-lactamase-mediated carbapenem resistance in bacteria. Native IMP-1, which included the N-terminal periplasmic signal sequence, was PCR amplified from […] isolated from a carbapenem resistant P. aeruginosa clinical isolate, CL56673, and cloned into the pET30a vector.

E. coli BL21(DE3) = assay: Carbapenem sensitivity (MIC) of E. coli BL21(DE3) with and without IMP-1 expression; type: cell-based; conditions: for fold reduced sensitivity caused by basal (uninduced) IMP-1 expression: pET30a-IMP-1 in E. coli BL21(DE3)
Method: as §1, with “vector. […] Various concentrations of IMP-1 inhibitor were added to the bacterial growth medium and their capacity to effect a four-fold or greater increase in sensitivity to the carbapenem was monitored.” for “vector.”

Row | Molecule | Effective conc for 4-fold reduction of MIC in E. coli [1] | fold reduced sensitivity caused by basal (uninduced) IMP-1 expression (E. coli BL21(DE3)) [fold] | also measured
1 | CC(=O)N[C@H](C)C(=O)S[C@H](Cc1ccc(-c2ccccc2)cc1)C(=O)O [Example 13] | 6.3 µM |  | 
2 | O=C(SC(Cc1ccc2oc3ccccc3c2c1)C(=O)O)c1ccccc1 (centres unmarked) [Example 79] | 0.2 µM |  | 
3 | (1S,5R,6S)-1-methyl-2-{7-[4-(aminocarbonylmethyl)-1,4-diazoniabicyclo(2.2.2)octan-1-yl]methyl-fluoren-9-on-3-yl}-6-(1R-hydroxyethyl)-carbapen-2-em-3-carboxylate chloride |  | 500 | minimum inhibitory concentration (MIC), without IMP-1 expression (E. coli BL21(DE3); E. coli BL21(DE3), before expression of IMP-1): 0.06 to 0.12 µg/mL; minimum inhibitory concentration (MIC), with IMP-1 expression (E. coli BL21(DE3); E. coli BL21(DE3)/pET30a-IMP-1, basal IMP-1 expression): 16 to 32 µg/mL
4 | C[C@@H](O)[C@H]1C(=O)N2C(C(=O)O)=C(SCCN=CN)C[C@H]12 [impenem] |  | 4 | 
5 | C[C@@H](O)[C@H]1C(=O)N2C(C(=O)O)=C(S[C@@H]3CN[C@H](C(=O)N(C)C)C3)[C@H](C)[C@H]12 [meropenem] |  | 64 | 
6 | CC(=O)SC(Cc1ccc2oc3ccccc3c2c1)C(=O)O (centres unmarked) [Example 78] | ≦0.1 μM |  | 
